Laboratory results from ChEMBL document CHEMBL1135279, “Design and synthesis of lignostilbene-alpha,beta-dioxygenase inhibitors” (Bioorg Med Chem Lett, 2002).

What was measured:
[1] = molecular target: T1, Lignostilbene alpha, beta-dioxygenase (Sphingomonas paucimobilis, UniProt O87171); assay: Tested for the inhibition of Lignostilbene-alpha, beta-dioxygenase (LSD)
T1 sequence (O87171 whole entry): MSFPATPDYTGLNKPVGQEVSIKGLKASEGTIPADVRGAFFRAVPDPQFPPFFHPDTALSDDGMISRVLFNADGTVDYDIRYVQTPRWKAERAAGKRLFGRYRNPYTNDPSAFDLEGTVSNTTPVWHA

[2] = molecular target: T1, Lignostilbene alpha, beta-dioxygenase; assay: Inhibitory concentration against Lignostilbene-alpha, beta-dioxygenase (LSD) was determined in 2 mL of 50 mM […] buffer containing 4 microg enzyme/mL at 30 degree C
[3] = molecular target: T1, Lignostilbene alpha, beta-dioxygenase; assay: Inhibitory concentration against Lignostilbene alpha beta-dioxygenase (LSD) was determined in 2 mL of 50 mM […] buffer containing 4 microg enzyme/mL at 30 degree C

| Ki [1] [µM] | IC50 [2] [µM] | IC50 [3] [µM] | Compound |
| --- | --- | --- | --- |
| 0.98 | 3 | – | Oc1ccc(/C(F)=C/c2ccccc2)cc1 |
| – | > 100 | – | C/C(=C\c1ccccc1)c1ccccc1 |
| – | – | 22 | C/C(=C/c1ccccc1)c1ccccc1 |
| – | – | 7 | C/C(=C/c1ccc(O)cc1)c1ccccc1 |
| – | > 100 | – | F/C(=C\c1ccccc1)c1ccccc1 |
| – | 15 | – | C/C(=C\c1ccc(O)cc1)c1ccccc1 |

| Compound | Ki [1] [µM] | IC50 [2] [µM] | IC50 [3] [µM] |
| --- | --- | --- | --- |
| C=C(C)c1ccc(O)cc1 | – | 12 | – |
